Measurements reported in patent US9388180B2, “Inhibitor compounds of phosphodiesterase type 10A” (priority 2012, dated 2016).

Experiments:
[1] = Microsomal half-life / microsomal clearance, human liver microsomes; format: in vitro ADME; conditions: 0.5 μM test substance, 0.25 mg protein/ml, pH 7.4, 37° C.
Method: (§1) The metabolic stability of the compounds of the invention was determined in the following assay. The test substances were incubated in a concentration of 0.5 μM as follows: 0.5 μM test substance are preincubated together with liver microsomes from different species (from rat, human or other species) (0.25 mg of microsomal protein/ml) in 0.05 M potassium phosphate buffer of pH 7.4 in microtiter plates at 37° C. for 5 min. The reaction is started by adding NADPH (1 mg/mL). After 0, 5, 10, 15, 20 and 30 min, 50 μl aliquots are removed, and the reaction is immediately stopped and cooled with the same volume of acetonitrile. The samples are frozen until analyzed. The remaining concentration of undegraded test substance is determined by MSMS. The half-life (T½) is determined from the gradient of the signal of test substance/unit time plot, it being possible to calculate the half-life of the test substance, assuming first order kinetics, from the decrease in the concentration of the compound with time. The microsomal clearance (mCl) is calculated from mCl=ln 2/T½/(content of microsomal protein in mg/ml)×1000 [ml/min/mg] (modified from references: Di, The Society for Bimolecular Screening, 2003, 453-462; Obach, D M D, 1999 vol 27. N 11, 1350-1359).

[2] = Microsomal half-life / microsomal clearance, rat liver microsomes; format: in vitro ADME; conditions: 0.5 μM test substance, 0.25 mg protein/ml, pH 7.4, 37° C.
Method: as §1

[3] = test system: rats; conditions: cited from earlier work
[4] = test system: rats; conditions: cited from earlier work; remark: listed apart in the source
[5] = test system: rats; conditions: cited from earlier work; remark: listed apart in the source

Row | Structure (SMILES) | Human mCl [1] | Rat mCl [2] | hyperactivity induced by PCP [3] | effect on the cataleptic effect of haloperidol ([4]; with D2 receptor antagonist haloperidol) | catalepsy on its own ([4]; without haloperidol) | reduction of amphetamine-induced hyperactivity [5]
1 | CCCc1nc(C)c2c(C)nc3scnc3n12 [Example 1, 5,6-Dimethyl-8-propyl-3-thia-1,4,7,8a-tetraaza-as-indacene] | ++ (++: <100 μl min^−1 mg^−1) | + (+: 100-220 μl min^−1 mg^−1) | – | – | – | –
2 | COc1ccc(Cc2nccc3cc(OC)c(OC)cc23)cc1OC [Papaverine, papaverine] | – | – | reduced hyperactivity | potentiated the cataleptic effect | did not cause catalepsy | insignificant
3 | CCCc1nc(C)c2c(C)nc3sc(C)nc3n12 [Example 3, 2,5,6-Trimethyl-8-propyl-3-thia-1,4,7,8a-tetraaza-as-indacene] | + (+: 100-220 μl min^−1 mg^−1) | ∘ (∘: >220 μl min^−1 mg^−1) | – | – | – | –
4 | Cc1ccc(-c2nc(C)c3c(C)nc4scnc4n23)cn1 [Example 11, 5,6-Dimethyl-8-(6-methyl-pyridin-3-yl)-3-thia-1,4,7,8a-tetraaza-as-indacene] | + (+: 100-220 μl min^−1 mg^−1) | + (+: 100-220 μl min^−1 mg^−1) | – | – | – | –
5 | Cc1nc(-c2cccc(C(N)=O)c2)n2c1c(C)nc1scnc12 [Example 8, 3-(5,6-Dimethyl-3-thia-1,4,7,8a-tetraaza-as-indacen-8-yl)-benzamide] | ++ (++: <100 μl min^−1 mg^−1) | ++ (++: <100 μl min^−1 mg^−1) | – | – | – | –
6 | Cc1ncccc1-c1nc(C)c2c(C)nc3scnc3n12 [Example 9, 5,6-Dimethyl-8-(2-methyl-pyridin-3-yl)-3-thia-1,4,7,8a-tetraaza-as-indacene] | ++ (++: <100 μl min^−1 mg^−1) | ++ (++: <100 μl min^−1 mg^−1) | – | – | – | –
7 | CCCc1nc(C)c2c(C)nc3sc(OC)nc3n12 [Example 5, 2-Methoxy-5,6-dimethyl-8-propyl-3-thia-1,4,7,8a-tetraaza-as-indacene] | ∘ (∘: >220 μl min^−1 mg^−1) | ∘ (∘: >220 μl min^−1 mg^−1) | – | – | – | –
